Laboratory results: ChEMBL document CHEMBL2086385, “Synthesis and antimicrobial evaluation of L-phenylalanine-derived C5-substituted rhodanine and chalcone derivatives containing thiobarbituric acid or 2-thioxo-4-thiazolidinone” (2012)
Values after ≈ are worked out from the molar mass of the structure shown.

What was measured:
Type in all cases: functional
Staphylococcus aureus [1] = test: Antibacterial activity against Staphylococcus aureus KCTC 209 after 24 hrs by broth microdilution method; settings: KCTC 209, 24 h
Staphylococcus aureus [2] = test: Antibacterial activity against Staphylococcus aureus KCTC 503 after 24 hrs by broth microdilution method; settings: KCTC 503, 24 h
Staphylococcus aureus [3] = test: Antibacterial activity against Staphylococcus aureus RN4220 after 24 hrs by broth microdilution method; settings: RN4220, 24 h
Escherichia coli = test: Antibacterial activity against Escherichia coli CCARM 1356 after 24 hrs by broth microdilution method; settings: CCARM 1356, 24 h
Staphylococcus aureus [4] = test: Antibacterial activity against methicillin-resistant Staphylococcus aureus CCARM 3167 clinical isolate after 24 hrs by broth microdilution method; settings: CCARM 3167, 24 h
Staphylococcus aureus [5] = test: Antibacterial activity against methicillin-resistant Staphylococcus aureus CCARM 3506 clinical isolate after 24 hrs by broth microdilution method; settings: CCARM 3506, 24 h
Staphylococcus aureus [6] = test: Antibacterial activity against quinolone-resistant Staphylococcus aureus CCARM 3505 clinical isolate after 24 hrs by broth microdilution method; settings: CCARM 3505, 24 h
Staphylococcus aureus [7] = test: Antibacterial activity against quinolone-resistant Staphylococcus aureus CCARM 3519 clinical isolate after 24 hrs by broth microdilution method; settings: CCARM 3519, 24 h

| SMILES | MIC (Staphylococcus aureus [1]) [µg/mL] | MIC (Staphylococcus aureus [2]) [µg/mL] | MIC (Staphylococcus aureus [3]) [µg/mL] | MIC (Escherichia coli) [µg/mL] | MIC (Staphylococcus aureus [4]) [µg/mL] | MIC (Staphylococcus aureus [5]) [µg/mL] | MIC (Staphylococcus aureus [6]) [µg/mL] | MIC (Staphylococcus aureus [7]) [µg/mL] |
| --- | --- | --- | --- | --- | --- | --- | --- | --- |
| Cc1ccc(COc2ccc(C=O)cc2)cc1 | > 64 | > 64 | > 64 | > 64 | > 64 | > 64 | > 64 | > 64 |
| O=Cc1ccc(/C=C/C(=O)c2ccc(Br)cc2)cc1 | > 64 | > 64 | > 64 | > 64 | > 64 | > 64 | > 64 | > 64 |
| O=C1NC(=S)NC(=O)C1=Cc1ccc(/C=C/C(=O)c2ccc(Cl)cc2)cc1 | > 64 | > 64 | > 64 | > 64 | > 64 | > 64 | > 64 | > 64 |
| O=Cc1ccc(OCc2cccc(Br)c2)cc1 | > 64 | > 64 | > 64 | > 64 | > 64 | > 64 | > 64 | > 64 |
| O=Cc1ccc(OCc2ccc(F)cc2)cc1 | > 64 | > 64 | > 64 | > 64 | > 64 | > 64 | > 64 | > 64 |
| O=Cc1ccc(OCc2ccccc2Cl)cc1 | > 64 | > 64 | > 64 | > 64 | > 64 | > 64 | > 64 | > 64 |
| O=C1NC(=S)S/C1=C/c1ccc(/C=C/C(=O)c2ccc(Cl)cc2)cc1 | > 64 | > 64 | > 64 | > 64 | > 64 | > 64 | > 64 | > 64 |
| O=C1NC(=S)NC(=O)C1=Cc1ccc(/C=C/C(=O)c2cccc(Cl)c2)cc1 | > 64 | > 64 | > 64 | > 64 | > 64 | > 64 | > 64 | > 64 |
| O=C1NC(=S)S/C1=C/c1ccc(/C=C/C(=O)c2ccccc2F)cc1 | > 64 | > 64 | > 64 | > 64 | > 64 | > 64 | > 64 | > 64 |
| O=Cc1ccc(OCc2ccc(Br)cc2)cc1 | > 64 | > 64 | > 64 | > 64 | > 64 | > 64 | > 64 | > 64 |
| O=C1NC(=S)S/C1=C/c1ccc(/C=C/C(=O)c2ccc(F)cc2)cc1 | > 64 | > 64 | > 64 | > 64 | > 64 | > 64 | > 64 | > 64 |
| Cc1ccc(C(=O)/C=C/c2ccc(C=O)cc2)c(C)c1 | > 64 | > 64 | > 64 | > 64 | > 64 | > 64 | > 64 | > 64 |
| COc1cccc(C(=O)/C=C/c2ccc(C=O)cc2)c1 | > 64 | > 64 | > 64 | > 64 | > 64 | > 64 | > 64 | > 64 |
| O=Cc1ccc(/C=C/C(=O)c2ccc(Cl)cc2)cc1 | > 64 | > 64 | > 64 | > 64 | > 64 | > 64 | > 64 | > 64 |
| O=Cc1ccc(/C=C/C(=O)c2ccccc2Br)cc1 | > 64 | > 64 | > 64 | > 64 | > 64 | > 64 | > 64 | > 64 |
| O=Cc1ccc(OCc2cccc(Cl)c2)cc1 | > 64 | > 64 | > 64 | > 64 | > 64 | > 64 | > 64 | > 64 |
| O=Cc1ccc(/C=C/C(=O)c2ccc(Cl)cc2Cl)cc1 | > 64 | > 64 | > 64 | > 64 | > 64 | > 64 | > 64 | > 64 |
| CCn1cc(C(=O)O)c(=O)c2cc(F)c(N3CCNCC3)cc21 [NORFLOXACIN] | 4 (≈ 12.5 µM) | 2 (≈ 6.26 µM) | 2 (≈ 6.26 µM) | 16 (≈ 50.1 µM) | 8 (≈ 25.1 µM) | 4 (≈ 12.5 µM) | > 64 | > 64 |
| O=Cc1ccc(/C=C/C(=O)c2ccc3ccccc3c2)cc1 | > 64 | > 64 | > 64 | > 64 | > 64 | > 64 | > 64 | > 64 |

| SMILES | MIC (Staphylococcus aureus [1]) [µg/mL] | MIC (Staphylococcus aureus [2]) [µg/mL] | MIC (Staphylococcus aureus [3]) [µg/mL] | MIC (Escherichia coli) [µg/mL] | MIC (Staphylococcus aureus [4]) [µg/mL] | MIC (Staphylococcus aureus [5]) [µg/mL] | MIC (Staphylococcus aureus [6]) [µg/mL] | MIC (Staphylococcus aureus [7]) [µg/mL] |
| --- | --- | --- | --- | --- | --- | --- | --- | --- |
| O=C1NC(=S)NC(=O)C1=Cc1ccc(/C=C/C(=O)c2ccccc2F)cc1 | > 64 | > 64 | > 64 | > 64 | > 64 | > 64 | > 64 | > 64 |
| O=Cc1ccc(/C=C/C(=O)c2ccccc2)cc1 | > 64 | > 64 | > 64 | > 64 | > 64 | > 64 | > 64 | > 64 |
| O=Cc1ccc(OCc2ccc(Cl)cc2)cc1 | > 64 | > 64 | > 64 | > 64 | > 64 | > 64 | > 64 | > 64 |
| Cc1ccc(C(=O)/C=C/c2ccc(C=O)cc2)cc1 | > 64 | > 64 | > 64 | > 64 | > 64 | > 64 | > 64 | > 64 |
| O=Cc1ccc(OCc2cccc(F)c2)cc1 | > 64 | > 64 | > 64 | > 64 | > 64 | > 64 | > 64 | > 64 |
| O=Cc1ccc(/C=C/C(=O)c2cccc(Br)c2)cc1 | > 64 | > 64 | > 64 | > 64 | > 64 | > 64 | > 64 | > 64 |
| O=C1NC(=S)NC(=O)C1=Cc1ccc(/C=C/C(=O)c2ccc(F)cc2)cc1 | > 64 | > 64 | > 64 | > 64 | > 64 | > 64 | > 64 | > 64 |
| O=C1NC(=S)NC(=O)C1=Cc1ccc(/C=C/C(=O)c2ccccc2Cl)cc1 | > 64 | > 64 | > 64 | > 64 | > 64 | > 64 | > 64 | > 64 |
| O=Cc1ccc(/C=C/C(=O)c2ccccc2F)cc1 | > 64 | > 64 | > 64 | > 64 | > 64 | > 64 | > 64 | > 64 |
| O=C1NC(=S)S/C1=C/c1ccc(/C=C/C(=O)c2ccccc2Cl)cc1 | > 64 | > 64 | > 64 | > 64 | > 64 | > 64 | > 64 | > 64 |
| O=Cc1ccc(/C=C/C(=O)c2ccccc2Cl)cc1 | > 64 | > 64 | > 64 | > 64 | > 64 | > 64 | > 64 | > 64 |
| O=Cc1ccc(/C=C/C(=O)c2ccc(F)cc2)cc1 | > 64 | > 64 | > 64 | > 64 | > 64 | > 64 | > 64 | > 64 |
| CC(=O)Nc1ccc(C(=O)/C=C/c2ccc(C=O)cc2)cc1 | > 64 | > 64 | > 64 | > 64 | > 64 | > 64 | > 64 | > 64 |
| O=C1NC(=S)S/C1=C/c1ccc(/C=C/C(=O)c2cccc(Cl)c2)cc1 | > 64 | > 64 | > 64 | > 64 | > 64 | > 64 | > 64 | > 64 |
| COc1ccc(C(=O)/C=C/c2ccc(C=O)cc2)cc1 | > 64 | > 64 | > 64 | > 64 | > 64 | > 64 | > 64 | > 64 |
| Cc1onc(-c2ccccc2)c1C(=O)N[C@@H]1C(=O)N2[C@@H]1SC(C)(C)[C@@H]2C(=O)O [OXACILLIN] | 1 (≈ 2.49 µM) | 1 (≈ 2.49 µM) | 1 (≈ 2.49 µM) | > 64 | > 64 | > 64 | 1 (≈ 2.49 µM) | 1 (≈ 2.49 µM) |
| O=Cc1ccc(/C=C/C(=O)c2cccc(Cl)c2)cc1 | > 64 | > 64 | > 64 | > 64 | > 64 | > 64 | > 64 | > 64 |
| O=Cc1ccc(OCc2ccccc2)cc1 | > 64 | > 64 | > 64 | > 64 | > 64 | > 64 | > 64 | > 64 |
| COc1ccccc1C(=O)/C=C/c1ccc(C=O)cc1 | > 64 | > 64 | > 64 | > 64 | > 64 | > 64 | > 64 | > 64 |
